Assay results taken from the Bradley open melting point set (2014).
Values joined by “and” are separate entries in the source; they are usually repeats but may differ in a detail not shown here. Identical values can stand only once. Counter-ions that a name gives are not always drawn.

Row | melting point | SMILES
1 | 218 °C | O=C(O)/C=C/c1ccccc1Br [trans-2-bromocinnamic acid]
2 | 438 °C | c1cc2ccc3ccc4ccc5ccc6ccc1c1c2c3c4c5c61 [Coronene]
3 | 97 °C | Cc1c(C)n(C#N)c2ccccc12 [2,3-dimethyl-1H-indole-1-carbonitrile]
4 | 52 °C | O=Cc1cccnc1Cl [2-chloropyridine-3-carboxaldehyde]
5 | 61 °C | CC(C)(C)OC(=O)N1CCC[C@H]1CO [N-boc-L-prolinol]
6 | 59 °C | COc1ccccc1OC(=O)c1ccccc1 [2-methoxyphenyl benzoate]
7 | -56.8 °C | CCCCCCCC [N-Octane]
8 | 216 °C (4×) and 218 °C | c1ccc2cc3ccccc3cc2c1 [anthracene]
9 | 19 °C | O=C(OCc1ccccc1)c1ccccc1 [benzyl_benzoate]
10 | 80 °C | O=C(O)C(F)c1ccccc1 (stereo not drawn) [alpha-fluorophenylacetic acid]
11 | 82 °C | COc1cc(C=O)ccc1O [4-Hydroxy-3-methoxybenzaldehyde]
12 | 186 °C and 184 °C | Cc1cc[n+]([O-])cc1 [4-picoline-N-oxide]
13 | -185 °C | C=CC [1-propene]
14 | 88 °C | CNC(=S)NCO [noxythiolin]
15 | 293 °C | CC(C)Cn1cnc2c(N)nc3ccccc3c21 [Imiquimod]
16 | 256 °C | CC(=O)NC1CCCCC(NC(C)=O)CCCC1 (stereo not given) [N,N'-cyclodecane-1,6-diyldiacetamide]
17 | 201 °C | Oc1c(Br)cc(Br)c2cccnc12 [5,7-dibromo-8-hydroxyquinoline]
18 | 34 °C | Fc1cc(OCc2ccccc2)ccc1Br [4-benzyloxy-1-bromo-2-fluorobenzene]
19 | 254 °C | CC1COc2c(N3CCN(C)CC3)c(F)cc3c(=O)c(C(=O)O)cn1c23 (stereo not given) [Ofloxacin]
20 | 119 °C | OB(O)c1ccccc1OC(F)(F)F [2-(trifluoromethoxy)benzeneboronic acid]
21 | 57 °C | OCC#CCO [2-butyne-1,4-diol]
22 | 138 °C | CC(=O)OCC1OC(OC2C(COC(C)=O)OC(OC(C)=O)C(OC(C)=O)C2OC(C)=O)C(OC(C)=O)C(OC(C)=O)C1OC(C)=O (stereo not given)

Row | melting point | SMILES
23 | 55 °C | Cc1ccc(Oc2ccccc2C=O)cc1 [2-(p-tolyloxy)benzaldehyde]
24 | 79 °C | N#Cc1c(F)c(F)c(F)c(C#N)c1F [2,4,5,6-Tetrafluoroisophthalonitrile]
25 | 142 °C | O=C(O)/C=C/c1cccc2c(Br)ccc([N+](=O)[O-])c12 [(2E)-3-(5-bromo-8-nitronaphthalen-1-yl)prop-2-enoic acid]
26 | -4 °C | CC1CCCCN1 (stereo not given) [2-methylpiperidine]
27 | 230 °C | Cc1cccc(Nc2ccccc2C(=O)O)c1C [mefenamic acid]
28 | 167 °C | O=C(O)c1cc([N+](=O)[O-])ccc1Cl [2-chloro-5-nitrobenzoic acid]
29 | 197 °C | O=C(O)C(S)C(S)C(=O)O (stereo not given) [2,3-Disulfanylsuccinic acid]
30 | 27 °C | Clc1ccc(Br)c(Cl)c1 [1-bromo-2,4-dichlorobenzene]
31 | 87 °C | O=C(O)Cc1ccc(OC(F)(F)F)cc1 [4-(trifluoromethoxy)phenylacetic acid]
32 | 69.8 °C | CCCCCCCc1ccc(C(=O)O)cc1 [4-Heptylbenzoic acid]
33 | 180 °C | Sc1nc2ccccc2s1 [2-mercaptobenzothiazole]
34 | 153 °C | O=C(O)CC(O)(CC(=O)O)C(=O)O [citric acid anhydrous]
35 | 36 °C | OCCCCCCCCCCc1ccccc1 [10-phenyl-1-decanol]
36 | 189 °C | O=C(O)c1cc(F)cc(F)c1O [3,5-difluorosalicylic acid]
37 | 256 °C | CSc1ccc(C(=O)c2[nH]c(=O)[nH]c2C)cc1 [Enoximone]
38 | 16 °C | CC(C)(C)c1ccc(Br)cc1 [1-bromo-4-tert-butylbenzene]
39 | 119 °C | CC(=O)C=Cc1oc2ccc(Cl)cc2c1-c1ccc(C)o1
40 | 164 °C | Oc1ccc(-c2nccs2)cc1 [4-(2-thiazolyl)phenol]
41 | 41 °C (3×) and 42 °C | Oc1ccccc1 [phenol]
42 | 177 °C | CO[C@@H]1O[C@H](CO)[C@H](O)[C@H](O)[C@H]1O [methyl beta-d-galactopyranoside]
43 | 98 °C | COc1ccc(CC(=O)O)cc1OC [(3,4-Dimethoxyphenyl)acetic acid]
44 | 218 °C | O=C1C(c2ccccc2)=C(c2ccccc2)C(c2ccccc2)=C1c1ccccc1 [tetraphenylcyclopentadienone]

Row | melting point | SMILES
45 | 19 °C | O=C(OCc1ccccc1)c1ccccc1 [benzyl benzoate]
46 | 163 °C | Cc1ccc(/C=C(\Oc2ccccc2)c2nc3ccccc3s2)cc1
47 | 234 °C | Nc1ncnc2c1ncn2[C@@H]1O[C@H](CO)[C@@H](O)[C@H]1O [Adenosine]
48 | 32 °C | CCCCCCCCCCCCCCCCCCS [1-octadecanethiol]
49 | 222 °C | CCOC(=O)O[C@]1(C(=O)OCCl)CC[C@H]2[C@@H]3CCC4=CC(=O)C=C[C@]4(C)[C@H]3[C@@H](O)C[C@@]21C [Loteprednol]
50 | 138 °C and 135 °C (2×) | CCOc1ccc(NC(C)=O)cc1 [phenacetin]
51 | -21 °C | CCC(=O)O [propionic acid]
52 | 116 °C | c1ccc2c(c1)Cc1ccccc1-2 [Fluorene]
53 | -55 °C | CCOC(=O)CC(O)(CC(=O)OCC)C(=O)OCC [triethyl citrate]
54 | 136 °C | CCC(C)(C)C(=O)O[C@H]1C[C@@H](C)C=C2C=C[C@H](C)[C@H](CC[C@@H]3C[C@@H](O)CC(=O)O3)[C@H]21 [Simvastatin]
55 | 35 °C | C=C1[C@@H]2CC[C@@H](C2)C1(C)C [camphene]
56 | 109 °C | CCc1ccc2c(c1)C(=O)c1ccccc1C2=O [2-ethylanthraquinone]
57 | 142 °C | CCOC(=O)CSCCC1NC(C(=O)O)CS1 (stereo not given) [letosteine]
58 | -25 °C | CCCC(c1ccccc1)c1ccccc1 [1,1-diphenylbutane]
59 | 136 °C | O=Cc1ccc(O)cc1O [b-Resorcylaldehyde]
60 | 102 °C | C(O)[C@@H](O)[C@@H](O)[C@H](O)CO [D-arabitol]
61 | 48 °C | CC#CCOS(=O)(=O)c1ccc(C)cc1 [2-butynyl p-toluenesulfonate]
62 | -128 °C | CC(C)C(C)C [2,3-Dimethylbutane]
63 | 205 °C | O=C(O)c1cc(O)ccc1O [2,5-dihydroxybenzoic_acid]
64 | -37 °C | CCCCC(=O)CC [3-heptanone]
65 | -69 °C | COCCOC [1,2-dimethoxyethane]
66 | 130 °C | Oc1cccc(Cl)n1 [2-chloro-6-hydroxypyridine]

Row | melting point | SMILES
67 | 48 °C | Cc1ccc(-c2ccccc2)cc1 [1-methyl-4-phenylbenzene]
68 | 54 °C | CC(=O)c1ccc2ccccc2c1 [2-acetylnaphthalene]
69 | 180 °C | NC12CC3CC(CC(C3)C1)C2 [Amantadine]
70 | 33 °C | C#CCCCCCCCCCCCCCCCCC [1-nonadecyne]
71 | 148 °C | CC(C)CCCC(C)C1CCC2C3CC=C4CC(O)CCC4(C)C3CCC12C (stereo not given) [cholest-5-en-3-ol]
72 | 120 °C | CN(C)CCC(O)(c1ccccc1)c1ccccc1Cl (stereo not given) [chlophedianol]
73 | -3 °C | CCCCCC(=O)O [hexanoic acid]
74 | 194 °C | Cc1cc(Cl)ccc1B(O)O [4-chloro-2-methylbenzeneboronic acid]
75 | 46 °C | O=Cc1ccc(Cl)cc1 [4-Chlorobenzaldehyde]
76 | 188 °C | O=C(O)CCC(=O)O [succinic_acid]
77 | -43.8 °C | Cc1ccc(C)c(C)c1 [1,2,4-Trimethylbenzene]
78 | -55 °C | CCCCCN [1-aminopentane]
79 | 214 °C and 215 °C | O=C(O)c1ccc(O)cc1 [4-hydroxybenzoic acid]
80 | -140 °C | CCN(C)C [N,N-Dimethylethanamine]
81 | 270 °C | Cn1c(=O)c2[nH]cnc2n(C)c1=O [Theophylline]
82 | -34 °C | COB(OC)OC [trimethyl borate]
83 | 59 °C | COc1ccc(C#N)cc1 [4-methoxybenzonitrile]
84 | 159 °C | On1nnc2ccccc21 [1H-Benzotriazol-1-ol]
85 | 136 °C | Nc1n[nH]cc1Br [3-amino-4-bromo-1h-pyrazole]
86 | -61 °C | CN(C)C=O [N,N-Dimethylformamide]

Row | SMILES | melting point
87 | COc1ccccc1N [o-anisidine] | 6 °C
88 | N#CCCc1ccccc1 [3-phenylpropionitrile] | -2 °C
89 | C/C=C/C=O [crotonaldehyde] | -76 °C
90 | O=[N+]([O-])c1ccc(O)c(Cl)c1 [2-chloro-4-nitrophenol] | 110 °C
91 | C1O[C@@H]1[C@H]1CO1 [butadiene diepoxide] | -19 °C
92 | O=[N+]([O-])c1cccc(Cl)c1Cl [1,2-dichloro-3-nitrobenzene] | 62 °C
93 | ClC1=C(Cl)[C@]2(Cl)[C@H]3[C@H]([C@@H]4C=C[C@H]3C4)[C@@]1(Cl)C2(Cl)Cl | 104 °C
94 | CC(C)c1ccc(O)cc1 [4-isopropylphenol] | 60 °C and 61 °C
95 | Cc1ccc(C)c(N)c1 [2,5-dimethylaniline] | 15 °C
96 | OCCCCO [1,4-butanediol] | 20 °C
97 | ClC1C(Cl)C(Cl)C(Cl)C(Cl)C1Cl (stereo not given) [Lindane] | 112 °C
98 | Oc1ccc(Cl)cc1 [p-chlorophenol] | 44 °C
99 | CCOC(=O)c1cncn1C(C)c1ccccc1 (stereo not given) [etomidate] | 67 °C
100 | Clc1ccc(-c2cc(Cl)ccc2Cl)cc1 [PCB-31] | 65 °C
101 | CCC1(CC)C(=O)NC(=O)N(C)C1=O [metharbital] | 150 °C
102 | O=[N+]([O-])c1c(Cl)c(Cl)c(Cl)c(Cl)c1Cl [Pentachloronitrobenzene] | 144 °C
103 | O=C(O)C(F)(F)C(F)(F)C(F)(F)C(F)(F)C(F)(F)C(F)(F)C(F)(F)F [Pentadecafluorooctanoic acid] | 55.5 °C
104 | C1CO1 [Oxirane] | -111 °C
105 | c1cc2ccc3cccc4ccc(c1)c2c34 [Pyrene] | 151 °C
